Results reported in patent US6114572A, “Substituted phenols and thiophenols useful as antioxidant agents” (priority 1997, dated 2000).
Where two headings read alike, the source gives them in different places.

Experiments:
[1] = HPLC quantitation of compound and metabolite concentration in rat serum and liver; settings: in vivo; for concentration at 96 h: po, 0.3% in diet, 4 days
Excerpt: (§1) A typical experiment consists of 4-6 groups of rats (N=5 per group) with 1 group being a control which receives no MDL compound and the other groups being treated with 0.3% MDL compound. Some of the compounds are either repeated at 0.3% or evaluated again at the lower dose of 0.1%. House Male Sprague-Dawley rats, 50-100 g, (Harlan Laboratories, Indianapolis, Ind.) in groups of 5, feeding ad libitum water and Purina Rodent chow (#5002) with or without MDL compound as a dietary admixture for 4 days. Make dietary admixtures (0.3%) by mixing 1.2 grams of an MDL compound with 400 grams of Purina rodent chow (#5002). Mix the MDL compound with approximately 50 grams of food using a mortar and pestle. This is added to the remainder of the food and mixed for 3 hours on a rotary mixer. In the morning of day 5, anesthetize non-fasted rats with carbon dioxide, and collect blood by cardiac puncture. Sacrifice rats by cervical dislocation. Record body weights and liver weights in grams. Record food consumption as grams·day^-1 ·rat^-1. Deaths are recorded as mortality. Use aliquots of fresh serum for clinical chemistries, thiobarbituric acid reactive substances (TBARS) and conjugated diene measurements. Freeze aliquots of serum (~0.5 mL) and whole livers at -20° C. for compound and metabolite concentration determination at a later time.
Determine serum and liver concentrations of parent compound and the metabolites, bisphenol and diphenoquinone, by reverse phase HPLC using a Waters 990 Powerline system. Homegenize livers (1 gram samples) with 5.0 mL PBS, pH 7.4, using a Polytron tissue homogenizer at setting 5 for 20-30 seconds. Extract serum or liver homogenates as follows: add 100 μL of either serum or homogenate to 2.0 mL diethyl ether:ethanol (3:1) while vortexing the tube. Cap the sample tubes and centrifuge for 10 min at 5° C. at 3500 rpm in a Beckman GPKR centrifuge with a GH 3.7 rotor. Transfer the supernatants to clean tubes and dry under N2. Reconstitute samples with 200 μL of acetonitrile:hexane:0.1 M ammonium acetate (90:6.5:3.5, by vol.). Then, inject 100 μL onto a Waters Deltapak C18-300 Å column, and elute with an 83% acetonitrile:17% water mobile phase at a flow rate of 1.5 mL/min. Record absorbances at the wavelengths of 240, 254, and 420nm. Calculate compound concentrations from known quantities of authentic parent compounds after correction for recovery. […]. Calculate concentrations as μg/mL of serum and μg/g of liver.

[2] = system: oxidation of serum lipids; assay: TBARS assay (oxidation of serum lipids) in male Sprague-Dawley rats; format: in vivo; settings: feed or water, 96 h, rat serum, 4 days, N = 5, CuSO4-initiated, 3 hr, read-out: TBARS, percent of control
Description: as §1, with “Some of the compounds are either repeated at 0.3% or evaluated again at the lower dose of 0.1%. House Male Sprague-Dawley rats, 50-100 g, (Harlan Laboratories, Indianapolis, Ind.) in groups of 5, feeding ad libitum water and Purina Rodent chow (#5002) with or without MDL compound as a dietary admixture for 4 days. Make dietary admixtures (0.3%) by mixing 1.2 grams of an MDL compound with 400 grams of Purina rodent chow (#5002).” left out
In this assay the oxidation of serum lipids is initiated with CuSO4, resulting in the formation of aldehydes, such as malondialdehyde (MDA). Upon incubation with thiobarbituric acid, the absorbance of the aldehydes can be detected at 530-540 nm. […] Measure TBARS as follows: mix 100 μL of serum with 400 μL of a 5 mmol CuSO4 solution and incubate at 37° C. for 3 hr. Stop the reactions by addition of 1.0 mL of 20% trichloroacetic acid. […] Centrifuge samples briefly to pellet undissolved material, and transfer the supernatants to a 96-well microtiter plate. Measure absorbances at 540 nm using a Biotek model EL311 microplate reader. The nmoles of MDA produced are calculated from a standard curve of 0 to 10 nmoles of MDA prepared from malonaldehyde bis(dimethylacetal). Serum samples from treated rats are compared to serum samples from control rats that received no MDL compound.

Male Sprague-Dawley Rats = assay: Serum clinical chemistries in male Sprague-Dawley rats; format: in vivo
Description: Measurement of Antioxidant Activity and Bioavailability of Compounds of Formula (1) By In Vivo Screening in Male Sprague-Dawley Rats
as §1, with “Some of the compounds are either repeated at 0.3% or evaluated again at the lower dose of 0.1%. House Male Sprague-Dawley rats, 50-100 g, (Harlan Laboratories, Indianapolis, Ind.) in groups of 5, feeding ad libitum water and Purina Rodent chow (#5002) with or without MDL compound as a dietary admixture for 4 days. Make dietary admixtures (0.3%) by mixing 1.2 grams of an MDL compound with 400 grams of Purina rodent chow (#5002).” left out
Allow blood to clot at room temperature for 30 minutes. Obtain serum after centrifugation for 10 min at 4° C. at 3000 rpm in a Beckman J-6M/E centrifuge with a JS-4.2 rotor. […] Calculate ALP, ALT, and AST as units/L. Calculate cholesterol, triglycerides, and glucose as mg/dL.

[3] = Animal parameters (food, body weight, liver weight, mortality) in male Sprague-Dawley rats; format: in vivo; settings: for mortality at 96 h: po, read-out: mortality (deaths per group); for mortality at 96 h / body wt., percent of control / lw/bw (liver weight/body weight), percent of control: rat
Excerpt: as §1

[4] = mean N = 5, read-out: Liver Parent (parent compound concentration)
[5] = mean N = 5, read-out: Serum Parent (parent compound concentration)
[6] = rat serum, 0.3% in diet, 4 days, N = 5
[7] = in vivo, 0.3% in diet, 4 days, N = 5

Structure (SMILES) | Liver Quin (diphenoquinone concentration) ([1]; 5760 min) | Serum Bis (bisphenol concentration) ([1]; 5760 min) | Serum Quin (diphenoquinone concentration) ([1]; 5760 min) | concentration at 96 h [1, 4] [ng/g] | concentration at 96 h [1, 5] [ng/mL] | response vs control in vivo at 0.3 % in diet [2] [%] | ALP (alkaline phosphatase), percent of control (Male Sprague-Dawley Rats; [6]) [%] | ALT (alanine aminotransferase), percent of control (Male Sprague-Dawley Rats; [6]) [%] | AST (aspartate aminotransferase), percent of control (Male Sprague-Dawley Rats; [6]) [%] | food (grams eaten per day per rat), percent of control ([3]; 0.3% in diet, 4 days, N = 5) [%] | mortality at 96 h [3, 7] [%] | body wt., percent of control ([3]; 0.3% in diet, 4 days, N = 5) [%] | Liver Bis (bisphenol concentration) ([1]; 5760 min) | food (grams eaten per day per rat), percent of control ([3]; in vivo) [%] | GLUC (glucose), percent of control (Male Sprague-Dawley Rats; rat, in vivo) [%] | Liver Parent (parent compound concentration) ([1]; 5760 min) | also measured
CC(CCCC(C)(C)O)CCSc1cc(C(C)(C)C)c(O)c(C(C)(C)C)c1 (stereo not drawn) [104,487] | 0 | 0 | 0 | 3800 | 4100 | 87 | 137 | 129 | 124 | 90 | 0 | 95 |  |  |  |  | GLUC (glucose), percent of control (Male Sprague-Dawley Rats; [6]): 92%
CC(C)=CCC[C@@H](C)CCOc1cc(C(C)(C)C)c(O)c(C(C)(C)C)c1 [104,535] | 0 | 0 | 0 | 60300 | 16300 | 11 | 151 | 108 |  |  | 0 |  | 0 | 95 |  |  | GLUC (glucose), percent of control (Male Sprague-Dawley Rats; [6]): 112%; AST (aspartate aminotransferase), percent of control (Male Sprague-Dawley Rats; rat, in vivo): 94%; body wt., percent of control ([3]; in vivo): 102%
CC(C)CCCC(C)CCOc1cc(C(C)(C)C)c(O)c(C(C)(C)C)c1 (stereo not drawn) [104,102] | 0 | 0 | 0 | 481000 | 32800 | 71 |  | 114 | 82 | 92 | 0 | 97 | 0 |  | 98 |  | ALP (alkaline phosphatase), percent of control (Male Sprague-Dawley Rats; rat, in vivo): 101%
CC(C)=CCCC(C)CCSc1cc(C(C)(C)C)c(O)c(C(C)(C)C)c1 (stereo not drawn) [103,960] | 0 | 0 | 0 | 47300 | 8700 | 24 | 125 | 117 |  |  | 0 | 100 |  | 105 | 110 |  | AST (aspartate aminotransferase), percent of control (Male Sprague-Dawley Rats; rat, in vivo): 102%; lw/bw (liver weight/body weight), percent of control ([3]; 0.3% in diet, 4 days, N = 5): 130%
CC(C)=CCC[C@H](C)CCOc1ccc(O)c(C(C)(C)C)c1 [103,649] | 0 | 0 | 0 |  | 1400 | 29 | 74 | 119 | 82 |  | 0 |  | 0 | 95 | 101 | 0 | response vs control in vivo at 0.3 % in diet (Male Sprague-Dawley Rats; Rattus norvegicus, feed or water, 96 h, read-out: TRIG (triglycerides), percent of control): 143%; body wt., percent of control ([3]; in vivo): 94%
CC(C)=CCC[C@H](C)CCSc1ccc(O)c(C(C)(C)C)c1 [103,714] | 0 | 0 | 0 |  | 2700 | 21 | 111 | 120 | 104 | 102 | 0 | 103 | 0 |  | 95 | 0 | 
CC(C)=CCC[C@H](C)CCOc1cc(C(C)(C)C)c(O)cc1C(C)(C)C [107,059] | 0 | 0 | 0 |  |  | 78 |  |  | 140 |  | 0 | 95 | 0 | 95 | 96 | 0 | Serum Parent (parent compound concentration) ([1]; 5760 min): 0; ALP (alkaline phosphatase), percent of control (Male Sprague-Dawley Rats; rat, in vivo): 118%; ALT (alanine aminotransferase), percent of control (Male Sprague-Dawley Rats; rat, in vivo): 116%; lw/bw (liver weight/body weight), percent of control ([3]; 0.3% in diet, 4 days, N = 5): 107%
